The text below walks through data of patent US10538555B2, “Macrocyclic inhibitors of the PD-1/PD-L1 and CD80(B7-1)/PD-L1 protein/protein interactions” (BRISTOL-MYERS SQUIBB COMPANY, priority 2014, dated 2020).

In this assay the target is T1, Human PD-L1/PD-1 (Homo sapiens, UniProt Q9NZQ7).
T1 construct: TVMV protease cleavage site (C); made in house; host or cells: HEK293T cells
As to the kind of experiment: HTRF Human PD-L1/PD-1 binding assay (PD-1-Ig/PD-L1-His). The conditions noted are these: PD-L1-His 10 nM, PD-1-Ig 20 nM. In a few lines: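 Truncated Fc-fused human PD-1 (aa 25-167) at 20 nM and His-tagged PD-L1 (aa 18-239) at 10 nM final are used, with peptides preincubated 15 min with PD-L1. Detection uses europium-cryptate anti-Ig and APC anti-His antibodies; 665/620 nm ratio.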
(TR-FRET usually uses a lanthanide donor and a delayed reading to cut background.)

Setting [1] is: class symbol, read-out: HTRF Human PD-L1/PD-1 Binding Assay IC50 Range.

Where two headings read alike, the source gives them in different places. Where a SMILES comes first, the peptide text is derived from it. Bridges are numbered along the chain shown (N, C = ends). [ ]: non-standard residue; d: D form. ξ: configuration not given here. Trp(1-CH2COOH) = N[C@@H](Cc1cn(CC(=O)O)c2ccccc12)C(=O)O; Trp(5-OH) = N[C@@H](Cc1c[nH]c2ccc(O)cc12)C(=O)O; d(cisHyp) = O=C(O)[C@H]1C[C@@H](O)CN1; Bta = N[C@@H](Cc1csc2ccccc12)C(=O)O; Hyp = O=C(O)[C@@H]1C[C@@H](O)CN1; dHyp = O=C(O)[C@H]1C[C@H](O)CN1; NMeNle = CCCC[C@H](NC)C(=O)O; NMeA = CN[C@@H](C)C(=O)O; Dab = NCC[C@H](N)C(=O)O; Dap = NC[C@H](N)C(=O)O; ξC = NC(CS)C(=O)O

T1 sequence (Q9NZQ7 with tags, fused parts or gaps): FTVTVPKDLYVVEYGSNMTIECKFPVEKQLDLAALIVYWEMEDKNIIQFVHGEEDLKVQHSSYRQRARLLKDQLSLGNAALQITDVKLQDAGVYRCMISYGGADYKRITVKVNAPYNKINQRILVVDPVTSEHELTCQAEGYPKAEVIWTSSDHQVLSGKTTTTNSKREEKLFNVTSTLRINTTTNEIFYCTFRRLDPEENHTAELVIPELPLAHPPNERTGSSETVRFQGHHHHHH

As to `CCCC[C@H]1C(=O)N(C)[C@@H](CCCC)C(=O)N[C@@H](CCC(=O)O)C(=O)N[C@H](C(=O)NCC(N)=O)CSCC(=O)N[C@@H](Cc2ccc(OC)cc2)C(=O)N(C)[C@@H](C)C(=O)N[C@@H](CC(=O)O)C(=O)N2CCC[C@H]2C(=O)N[C@@H](Cc2c[nH]cn2)C(=O)N[C@@H](CCCCN)C(=O)N2C[C@H](O)C[C@H]2C(=O)N[C@@H](Cc2c[nH]c3ccccc23)C(=O)N[C@@H](CCN)C(=O)N[C@@H](Cc2cn(CC(=O)O)c3ccccc23)C(=O)N1C` [Example 7147] ({CH2CO}-Y(Me)[NMeA]DPHK[Hyp]W[Dab][Trp(1-CH2COOH)][NMeNle][NMeNle]ECG-NH2; thioether N-14), under setting [1], the IC50 fell in the range of 0.001 to 0.0099 µM.

For the compound `CCCC[C@H]1C(=O)N(C)[C@@H](CCCC)C(=O)N[C@@H](CCC(=O)O)C(=O)N[C@H](C(=O)NCC(N)=O)CSCC(=O)N[C@@H](Cc2ccc(OC)cc2)C(=O)N(C)[C@@H](C)C(=O)N[C@@H](CC(=O)O)C(=O)N2CCC[C@H]2C(=O)N[C@@H](CN)C(=O)N[C@@H](CCCCN)C(=O)N2C[C@H](O)C[C@H]2C(=O)N[C@@H](Cc2c[nH]c3ccccc23)C(=O)N[C@@H](CCN)C(=O)N[C@@H](Cc2cn(CC(=O)O)c3ccccc23)C(=O)N1C` [Example 7148] ({CH2CO}-Y(Me)[NMeA]DP[Dap]K[Hyp]W[Dab][Trp(1-CH2COOH)][NMeNle][NMeNle]ECG-NH2; thioether N-14), the IC50 under setting [1] lay within 0.001 to 0.0099 µM.

Take `CCCC[C@H]1C(=O)N(C)[C@@H](CCCC)C(=O)N[C@@H](CC(C)C)C(=O)N[C@H](C(=O)NCC(N)=O)CSCC(=O)N[C@@H](Cc2ccc(OC)cc2)C(=O)N(C)[C@@H](C)C(=O)N[C@@H](CC(N)=O)C(=O)N2CCC[C@@H]2C(=O)N[C@@H](CN)C(=O)N[C@@H](C(C)C)C(=O)N2C[C@@H](O)C[C@@H]2C(=O)N[C@@H](Cc2c[nH]c3ccccc23)C(=O)N[C@@H](CCN)C(=O)N[C@@H](Cc2cn(CC(=O)O)c3ccccc23)C(=O)N1C` [Example 7151] ({CH2CO}-Y(Me)[NMeA]N[dP][Dap]V[dHyp]W[Dab][Trp(1-CH2COOH)][NMeNle][NMeNle]LCG-NH2; thioether N-14): under setting [1], the IC50 is 0.001 to 0.0099 µM.

For `CCCC[C@H]1C(=O)N(C)[C@@H](CCCC)C(=O)N[C@@H](CCC(=O)O)C(=O)N[C@H](C(=O)NCC(N)=O)CSCC(=O)N[C@@H](Cc2ccc(OC)cc2)C(=O)N(C)[C@@H](C)C(=O)N[C@@H](CC(=O)O)C(=O)N2CCC[C@H]2C(=O)N[C@@H](CN)C(=O)N[C@@H](CCC(=O)O)C(=O)N2C[C@H](O)C[C@H]2C(=O)N[C@@H](Cc2c[nH]c3ccccc23)C(=O)N[C@@H](CCN)C(=O)N[C@@H](Cc2c[nH]c3ccc(O)cc23)C(=O)N1C` [Example 7152] ({CH2CO}-Y(Me)[NMeA]DP[Dap]E[Hyp]W[Dab][Trp(5-OH)][NMeNle][NMeNle]ECG-NH2; thioether N-14), under setting [1], the IC50 lay within 0.01 to 0.0999 µM.

`CCCC[C@H]1C(=O)N(C)[C@@H](CCCC)C(=O)N[C@@H](CC(C)C)C(=O)N[C@H](C(=O)NCC(N)=O)CSCC(=O)N[C@@H](Cc2ccc(OC)cc2)C(=O)N(C)[C@@H](C)C(=O)N[C@@H](CC(=O)O)C(=O)N2CCC[C@H]2C(=O)N[C@@H](Cc2cnc[nH]2)C(=O)N[C@@H](CCCCN)C(=O)N2C[C@H](O)C[C@@H]2C(=O)N[C@@H](Cc2c[nH]c3ccccc23)C(=O)N[C@@H](CCCCN)C(=O)N[C@@H](Cc2cn(CC(=O)O)c3ccccc23)C(=O)N1C` [Example 7153] ({CH2CO}-Y(Me)[NMeA]DPHK[d(cisHyp)]WK[Trp(1-CH2COOH)][NMeNle][NMeNle]LCG-NH2; thioether N-14): under setting [1], the IC50 was in the range of 0.001 to 0.0099 µM.

With `CCCC[C@H]1C(=O)N(C)[C@@H](CCCC)C(=O)N[C@@H](CC(C)C)C(=O)N[C@H](C(=O)NCC(N)=O)CSCC(=O)N[C@@H](Cc2ccc(OC)cc2)C(=O)N(C)[C@@H](C)C(=O)N[C@@H](CC(=O)O)C(=O)N2CCC[C@H]2C(=O)N[C@@H](Cc2cnc[nH]2)C(=O)N[C@@H](CCCCN)C(=O)N2C[C@H](O)C[C@@H]2C(=O)N[C@@H](Cc2c[nH]c3ccccc23)C(=O)N[C@@H](CCCCN)C(=O)N[C@@H](Cc2cn(CC(=O)O)c3ccccc23)C(=O)N1C` [Example 7154] ({CH2CO}-Y(Me)[NMeA]DPHK[d(cisHyp)]WK[Trp(1-CH2COOH)][NMeNle][NMeNle]LCG-NH2; thioether N-14), the IC50 under setting [1] was 0.01 to 0.0999 µM.

Take `CCCC[C@H]1C(=O)N(C)[C@@H](C)C(=O)N[C@@H](CCCNC(=N)N)C(=O)NC(C(=O)NCC(N)=O)CSCC(=O)N[C@@H](Cc2ccc(O)cc2)C(=O)N(C)[C@@H](C)C(=O)N[C@@H](CC(N)=O)C(=O)N2CCC[C@H]2C(=O)N[C@@H](CO)C(=O)N[C@H](CC(C)C)C(=O)N2C[C@H](O)C[C@H]2C(=O)N[C@@H](Cc2c[nH]c3ccccc23)C(=O)N[C@@H](CO)C(=O)N[C@@H](Cc2c[nH]c3ccccc23)C(=O)N1C` (stereo partly drawn) [Example 9115] ({CH2CO}-Y[NMeA]NPS[dL][Hyp]WSW[NMeNle][NMeA]R[ξC]G-NH2; thioether N-14): the IC50 under setting [1] lay within 0.01 to 0.0999 µM.

For the compound `CCCC[C@H]1C(=O)N(C)[C@@H](C)C(=O)N[C@@H](CCCNC(=N)N)C(=O)NC(C(=O)NCC(N)=O)CSCC(=O)N[C@@H](Cc2ccc(O)cc2)C(=O)N(C)[C@@H](C)C(=O)N[C@@H](CC(N)=O)C(=O)N2CCC[C@H]2C(=O)N[C@@H](CO)C(=O)N[C@H](CC(C)C)C(=O)N2C[C@H](O)C[C@H]2C(=O)N[C@@H](Cc2c[nH]c3ccccc23)C(=O)N[C@@H](CO)C(=O)N[C@@H](Cc2csc3ccccc23)C(=O)N1C` (stereo partly drawn) [Example 9116] ({CH2CO}-Y[NMeA]NPS[dL][Hyp]WS[Bta][NMeNle][NMeA]R[ξC]G-NH2; thioether N-14), under setting [1], the IC50 is 0.01 to 0.0999 µM.

Consider `CCCC[C@H]1C(=O)N(C)[C@@H](C)C(=O)N[C@@H](CCCNC(=N)N)C(=O)NC(C(=O)NCC(N)=O)CSCC(=O)N[C@@H](Cc2ccc(O)cc2)C(=O)N(C)[C@@H](C)C(=O)N[C@@H](CC(N)=O)C(=O)N2CCC[C@H]2C(=O)N[C@@H](Cc2cnc[nH]2)C(=O)N[C@H](CO)C(=O)N2CCC[C@H]2C(=O)N[C@@H](Cc2c[nH]c3ccccc23)C(=O)N[C@@H](CO)C(=O)N[C@@H](Cc2c[nH]c3ccccc23)C(=O)N1C` (stereo partly drawn) [Example 9117] ({CH2CO}-Y[NMeA]NPH[dS]PWSW[NMeNle][NMeA]R[ξC]G-NH2; thioether N-14), for which, under setting [1], the IC50 lay in the range of 0.01 to 0.0999 µM.

`CCCC[C@H]1C(=O)N(C)[C@@H](C)C(=O)N[C@@H](CCCNC(=N)N)C(=O)NC(C(=O)NCC(N)=O)CSCC(=O)N[C@@H](Cc2ccc(O)cc2)C(=O)N(C)[C@@H](C)C(=O)N[C@@H](CC(N)=O)C(=O)N2CCC[C@H]2C(=O)N[C@@H](Cc2cnc[nH]2)C(=O)N[C@H](CO)C(=O)N2CCC[C@H]2C(=O)N[C@@H](Cc2c[nH]c3ccccc23)C(=O)N[C@@H](CO)C(=O)N[C@@H](Cc2csc3ccccc23)C(=O)N1C` (stereo partly drawn) [Example 9118] ({CH2CO}-Y[NMeA]NPH[dS]PWS[Bta][NMeNle][NMeA]R[ξC]G-NH2; thioether N-14): the IC50 (read-out: HTRF Human PD-L1/PD-1 Binding Assay IC50) came out at 0.027 µM.

Turning to `CCCC[C@H]1C(=O)N(C)[C@@H](C)C(=O)N[C@@H](CCCNC(=N)N)C(=O)NC(C(=O)NCC(N)=O)CSCC(=O)N[C@@H](Cc2ccc(O)cc2)C(=O)N(C)[C@@H](C)C(=O)N[C@@H](CC(N)=O)C(=O)N2CCC[C@H]2C(=O)N[C@@H](Cc2cnc[nH]2)C(=O)N[C@H](CO)C(=O)N2C[C@H](O)C[C@H]2C(=O)N[C@@H](Cc2c[nH]c3ccccc23)C(=O)N[C@@H](CO)C(=O)N[C@@H](Cc2c[nH]c3ccccc23)C(=O)N1C` (stereo partly drawn) [Example 9119] ({CH2CO}-Y[NMeA]NPH[dS][Hyp]WSW[NMeNle][NMeA]R[ξC]G-NH2; thioether N-14), under setting [1], the IC50 lay in the range of 0.01 to 0.0999 µM.

On to `CCCC[C@H]1C(=O)N(C)[C@@H](C)C(=O)N[C@@H](CCCNC(=N)N)C(=O)NC(C(=O)NCC(N)=O)CSCC(=O)N[C@@H](Cc2ccc(O)cc2)C(=O)N(C)[C@@H](C)C(=O)N[C@@H](CC(N)=O)C(=O)N2CCC[C@H]2C(=O)N[C@@H](Cc2cnc[nH]2)C(=O)N[C@H](CO)C(=O)N2C[C@H](O)C[C@H]2C(=O)N[C@@H](Cc2c[nH]c3ccccc23)C(=O)N[C@@H](CO)C(=O)N[C@@H](Cc2csc3ccccc23)C(=O)N1C` (stereo partly drawn) [Example 9120] ({CH2CO}-Y[NMeA]NPH[dS][Hyp]WS[Bta][NMeNle][NMeA]R[ξC]G-NH2; thioether N-14), for which, under setting [1], the IC50 lay in the range of 0.01 to 0.0999 µM.

In the case of `CCCC[C@H]1C(=O)N(C)[C@@H](C)C(=O)N[C@@H](CCCNC(=N)N)C(=O)NC(C(=O)N[C@@H](CO)C(N)=O)CSCC(=O)N[C@@H](Cc2ccc(O)cc2)C(=O)N(C)[C@@H](C)C(=O)N[C@@H](CC(N)=O)C(=O)N2CCC[C@H]2C(=O)N[C@@H](CO)C(=O)N[C@H](CC(C)C)C(=O)N2CCC[C@H]2C(=O)N[C@@H](Cc2c[nH]c3ccccc23)C(=O)N[C@@H](CO)C(=O)N[C@@H](Cc2c[nH]c3ccccc23)C(=O)N1C` (stereo partly drawn) [Example 9121] ({CH2CO}-Y[NMeA]NPS[dL]PWSW[NMeNle][NMeA]R[ξC]S-NH2; thioether N-14), under setting [1], the IC50 was in the range of 0.01 to 0.0999 µM.

As for `CCCC[C@H]1C(=O)N(C)[C@@H](C)C(=O)N[C@@H](CCCNC(=N)N)C(=O)NC(C(=O)N[C@@H](CO)C(N)=O)CSCC(=O)N[C@@H](Cc2ccc(O)cc2)C(=O)N(C)[C@@H](C)C(=O)N[C@@H](CC(N)=O)C(=O)N2CCC[C@H]2C(=O)N[C@@H](CO)C(=O)N[C@H](CC(C)C)C(=O)N2CCC[C@H]2C(=O)N[C@@H](Cc2c[nH]c3ccccc23)C(=O)N[C@@H](CO)C(=O)N[C@@H](Cc2csc3ccccc23)C(=O)N1C` (stereo partly drawn) [Example 9122] ({CH2CO}-Y[NMeA]NPS[dL]PWS[Bta][NMeNle][NMeA]R[ξC]S-NH2; thioether N-14), the IC50 under setting [1] was 0.01 to 0.0999 µM.

Turning to `CCCC[C@H]1C(=O)N(C)[C@@H](C)C(=O)N[C@@H](CCCNC(=N)N)C(=O)NC(C(=O)N[C@@H](CO)C(N)=O)CSCC(=O)N[C@@H](Cc2ccc(O)cc2)C(=O)N(C)[C@@H](C)C(=O)N[C@@H](CC(N)=O)C(=O)N2CCC[C@H]2C(=O)N[C@@H](CO)C(=O)N[C@H](CC(C)C)C(=O)N2C[C@H](O)C[C@H]2C(=O)N[C@@H](Cc2c[nH]c3ccccc23)C(=O)N[C@@H](CO)C(=O)N[C@@H](Cc2c[nH]c3ccccc23)C(=O)N1C` (stereo partly drawn) [Example 9123] ({CH2CO}-Y[NMeA]NPS[dL][Hyp]WSW[NMeNle][NMeA]R[ξC]S-NH2; thioether N-14), the IC50 under setting [1] fell in the range of 0.001 to 0.0099 µM.
